We go through three molecules from PMC6437697 (Journal of Medicinal Chemistry, 2019).

Common to all, as to assay: KINOMEscan
Holding throughout (type): binding
Holding throughout (conditions): read-out: % control activity remaining

For assay [1], the target named is T1, CAMK1D (Homo sapiens, UniProt Q8IU85).
T1 construct: purchased Eurofins DiscoverX KINOMEscan

The target of assay [2] is T2, CSF1R (Homo sapiens, UniProt P07333).
T2 construct: purchased Eurofins DiscoverX KINOMEscan

Assay [3] deals with T3, EGFR (Homo sapiens, UniProt P00533).
T3 construct: purchased Eurofins DiscoverX KINOMEscan

For assay [4], the target named is T4, EPHA2 (Homo sapiens, UniProt P29317).
T4 construct: purchased Eurofins DiscoverX KINOMEscan

Assay [5] addresses T5, ERK1 (Homo sapiens, UniProt P27361).
T5 construct: purchased Eurofins DiscoverX KINOMEscan

Assay [6] concerns the target T6, FLT3(R834Q) (Homo sapiens, UniProt P36888, R834Q).
T6 construct: purchased Eurofins DiscoverX KINOMEscan
T6 sequence (P36888 27-993 R834Q): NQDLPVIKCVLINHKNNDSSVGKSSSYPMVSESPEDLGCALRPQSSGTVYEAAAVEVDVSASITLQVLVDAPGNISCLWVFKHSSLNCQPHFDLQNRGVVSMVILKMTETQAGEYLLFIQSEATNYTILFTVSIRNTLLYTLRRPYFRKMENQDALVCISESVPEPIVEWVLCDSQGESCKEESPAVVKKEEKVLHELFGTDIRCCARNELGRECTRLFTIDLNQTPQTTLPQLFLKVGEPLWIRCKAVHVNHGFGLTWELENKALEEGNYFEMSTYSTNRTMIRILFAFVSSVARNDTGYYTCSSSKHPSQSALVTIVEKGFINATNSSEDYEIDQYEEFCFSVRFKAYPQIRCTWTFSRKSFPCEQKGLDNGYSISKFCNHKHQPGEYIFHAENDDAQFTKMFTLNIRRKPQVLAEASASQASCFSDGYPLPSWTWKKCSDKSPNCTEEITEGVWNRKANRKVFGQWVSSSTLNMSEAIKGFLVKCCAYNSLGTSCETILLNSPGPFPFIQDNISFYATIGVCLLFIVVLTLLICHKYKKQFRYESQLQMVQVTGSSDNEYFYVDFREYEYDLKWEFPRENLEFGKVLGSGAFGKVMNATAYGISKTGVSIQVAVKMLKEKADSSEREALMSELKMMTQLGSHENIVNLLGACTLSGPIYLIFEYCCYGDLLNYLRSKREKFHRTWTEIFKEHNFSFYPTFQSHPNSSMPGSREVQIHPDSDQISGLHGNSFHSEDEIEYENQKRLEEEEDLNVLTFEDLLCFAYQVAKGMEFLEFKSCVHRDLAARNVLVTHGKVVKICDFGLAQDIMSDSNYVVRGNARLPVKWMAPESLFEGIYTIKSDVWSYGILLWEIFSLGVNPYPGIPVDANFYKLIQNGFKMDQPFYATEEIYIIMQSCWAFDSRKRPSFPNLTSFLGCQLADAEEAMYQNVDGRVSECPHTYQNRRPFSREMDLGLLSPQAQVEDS

For assay [7], the target named is T7, IGF1R (Homo sapiens, UniProt P08069).
T7 construct: purchased Eurofins DiscoverX KINOMEscan
T7 sequence (P08069 31-1367 limits assumed): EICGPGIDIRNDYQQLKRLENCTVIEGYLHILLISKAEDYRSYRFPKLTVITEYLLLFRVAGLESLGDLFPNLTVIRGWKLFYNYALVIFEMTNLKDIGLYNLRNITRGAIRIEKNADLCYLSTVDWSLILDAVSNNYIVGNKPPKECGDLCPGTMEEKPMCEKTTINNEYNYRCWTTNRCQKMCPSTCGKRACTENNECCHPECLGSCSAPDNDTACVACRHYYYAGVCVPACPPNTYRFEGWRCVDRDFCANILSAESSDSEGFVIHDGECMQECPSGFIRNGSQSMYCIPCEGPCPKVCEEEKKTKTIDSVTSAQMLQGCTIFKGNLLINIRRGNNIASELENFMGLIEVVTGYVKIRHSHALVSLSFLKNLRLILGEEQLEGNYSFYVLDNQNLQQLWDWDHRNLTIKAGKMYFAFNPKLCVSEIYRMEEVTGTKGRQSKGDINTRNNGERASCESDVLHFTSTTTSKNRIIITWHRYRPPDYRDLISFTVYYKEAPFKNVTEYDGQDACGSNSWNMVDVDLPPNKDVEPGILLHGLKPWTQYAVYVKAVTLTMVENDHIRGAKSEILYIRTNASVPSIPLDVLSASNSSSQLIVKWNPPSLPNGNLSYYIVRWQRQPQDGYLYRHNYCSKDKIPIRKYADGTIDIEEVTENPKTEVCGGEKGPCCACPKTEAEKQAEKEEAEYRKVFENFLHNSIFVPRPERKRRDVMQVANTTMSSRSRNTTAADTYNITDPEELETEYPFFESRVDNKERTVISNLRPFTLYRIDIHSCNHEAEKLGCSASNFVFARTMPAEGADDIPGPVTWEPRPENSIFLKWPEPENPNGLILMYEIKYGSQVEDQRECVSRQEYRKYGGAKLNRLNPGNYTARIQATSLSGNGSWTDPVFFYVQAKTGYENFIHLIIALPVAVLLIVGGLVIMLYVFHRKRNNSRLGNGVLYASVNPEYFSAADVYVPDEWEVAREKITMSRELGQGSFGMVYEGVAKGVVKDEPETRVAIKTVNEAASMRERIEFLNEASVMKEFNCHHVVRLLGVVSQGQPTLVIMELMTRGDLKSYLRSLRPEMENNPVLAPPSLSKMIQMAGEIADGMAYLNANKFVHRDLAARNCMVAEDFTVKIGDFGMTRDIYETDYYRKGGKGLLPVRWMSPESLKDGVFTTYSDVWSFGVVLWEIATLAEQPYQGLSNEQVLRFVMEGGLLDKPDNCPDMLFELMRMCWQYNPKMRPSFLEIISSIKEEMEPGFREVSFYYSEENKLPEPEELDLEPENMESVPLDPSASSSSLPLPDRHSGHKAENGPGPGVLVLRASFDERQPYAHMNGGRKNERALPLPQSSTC

Assay [8] deals with T8, LOK (Homo sapiens, UniProt O94804).
T8 construct: purchased Eurofins DiscoverX KINOMEscan
T8 sequence (O94804 whole entry): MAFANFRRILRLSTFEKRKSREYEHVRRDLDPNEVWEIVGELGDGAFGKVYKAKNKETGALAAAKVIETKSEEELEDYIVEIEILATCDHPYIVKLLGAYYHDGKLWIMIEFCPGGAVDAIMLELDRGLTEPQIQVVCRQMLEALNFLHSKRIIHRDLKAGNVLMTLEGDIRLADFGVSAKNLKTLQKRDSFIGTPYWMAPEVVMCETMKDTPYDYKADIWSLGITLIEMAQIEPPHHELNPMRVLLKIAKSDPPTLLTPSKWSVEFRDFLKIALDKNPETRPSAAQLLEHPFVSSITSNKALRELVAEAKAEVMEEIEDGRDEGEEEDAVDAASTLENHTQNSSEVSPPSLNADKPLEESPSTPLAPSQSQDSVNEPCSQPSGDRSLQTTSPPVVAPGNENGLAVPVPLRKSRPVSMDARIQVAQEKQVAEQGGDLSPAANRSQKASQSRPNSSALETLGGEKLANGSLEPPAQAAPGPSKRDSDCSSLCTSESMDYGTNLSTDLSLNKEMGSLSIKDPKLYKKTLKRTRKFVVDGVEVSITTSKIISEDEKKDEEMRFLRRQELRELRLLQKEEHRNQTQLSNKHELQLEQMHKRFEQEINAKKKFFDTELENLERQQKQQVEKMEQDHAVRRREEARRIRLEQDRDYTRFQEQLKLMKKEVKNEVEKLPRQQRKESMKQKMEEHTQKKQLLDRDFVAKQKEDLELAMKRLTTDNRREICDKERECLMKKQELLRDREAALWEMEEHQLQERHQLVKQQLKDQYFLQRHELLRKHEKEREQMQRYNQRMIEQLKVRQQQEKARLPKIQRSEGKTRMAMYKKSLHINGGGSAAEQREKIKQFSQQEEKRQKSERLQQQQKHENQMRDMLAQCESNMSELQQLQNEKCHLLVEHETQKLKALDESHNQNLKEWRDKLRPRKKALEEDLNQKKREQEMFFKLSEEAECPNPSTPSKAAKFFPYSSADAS

Assay [9] addresses T9, NIK (Homo sapiens, UniProt Q99558).
T9 construct: purchased Eurofins DiscoverX KINOMEscan

For assay [10], the target named is T10, PFTAIRE2 (Homo sapiens, UniProt Q96Q40).
T10 construct: purchased Eurofins DiscoverX KINOMEscan
T10 sequence (Q96Q40 whole entry): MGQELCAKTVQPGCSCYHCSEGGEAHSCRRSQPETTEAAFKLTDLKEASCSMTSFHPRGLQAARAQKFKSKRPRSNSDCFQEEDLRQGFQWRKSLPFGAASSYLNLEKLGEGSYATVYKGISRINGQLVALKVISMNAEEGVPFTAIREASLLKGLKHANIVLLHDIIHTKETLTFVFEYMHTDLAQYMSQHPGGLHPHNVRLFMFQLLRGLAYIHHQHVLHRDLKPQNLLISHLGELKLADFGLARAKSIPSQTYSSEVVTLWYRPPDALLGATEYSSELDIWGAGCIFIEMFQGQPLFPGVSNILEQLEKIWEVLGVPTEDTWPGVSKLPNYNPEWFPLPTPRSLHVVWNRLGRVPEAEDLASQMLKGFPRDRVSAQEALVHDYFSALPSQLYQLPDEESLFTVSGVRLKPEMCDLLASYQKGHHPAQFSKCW

For assay [11], the target named is T11, PFTK1 (Homo sapiens, UniProt O94921).
T11 construct: purchased Eurofins DiscoverX KINOMEscan

In assay [12] the target is T12, PIM1 (Homo sapiens, UniProt P11309).
T12 construct: purchased Eurofins DiscoverX KINOMEscan

For assay [13], the target named is T13, PIP5K1C (Homo sapiens, UniProt O60331).
T13 construct: purchased Eurofins DiscoverX KINOMEscan
T13 sequence (O60331 whole entry): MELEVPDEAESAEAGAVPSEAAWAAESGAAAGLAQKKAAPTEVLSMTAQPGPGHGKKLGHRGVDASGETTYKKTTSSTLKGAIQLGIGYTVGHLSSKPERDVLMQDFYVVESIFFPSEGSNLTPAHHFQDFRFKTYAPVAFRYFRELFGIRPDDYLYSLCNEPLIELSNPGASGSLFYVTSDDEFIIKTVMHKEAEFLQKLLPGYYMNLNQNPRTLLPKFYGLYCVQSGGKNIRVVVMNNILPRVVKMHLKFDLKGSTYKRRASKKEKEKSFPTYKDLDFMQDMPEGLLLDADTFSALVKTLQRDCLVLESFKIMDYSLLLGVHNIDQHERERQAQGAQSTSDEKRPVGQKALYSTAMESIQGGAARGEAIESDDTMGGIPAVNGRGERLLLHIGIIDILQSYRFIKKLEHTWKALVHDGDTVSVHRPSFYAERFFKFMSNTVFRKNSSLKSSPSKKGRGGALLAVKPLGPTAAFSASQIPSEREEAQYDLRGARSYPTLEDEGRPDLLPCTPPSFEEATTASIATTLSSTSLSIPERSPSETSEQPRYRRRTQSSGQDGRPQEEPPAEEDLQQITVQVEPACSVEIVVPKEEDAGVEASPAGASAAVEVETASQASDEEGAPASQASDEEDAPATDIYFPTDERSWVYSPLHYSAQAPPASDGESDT

The target in assay [14] is T14, PLK3 (Homo sapiens, UniProt Q9H4B4).
T14 construct: purchased Eurofins DiscoverX KINOMEscan

The target in assay [15] is T15, PYK2 (Homo sapiens, UniProt Q14289).
T15 construct: purchased Eurofins DiscoverX KINOMEscan

Assay [16] addresses T16, RET (Homo sapiens, UniProt P07949).
T16 construct: purchased Eurofins DiscoverX KINOMEscan

Assay [17] addresses T17, RIPK5 (Homo sapiens, UniProt Q6XUX3).
T17 construct: purchased Eurofins DiscoverX KINOMEscan
T17 sequence (Q6XUX3 1-929): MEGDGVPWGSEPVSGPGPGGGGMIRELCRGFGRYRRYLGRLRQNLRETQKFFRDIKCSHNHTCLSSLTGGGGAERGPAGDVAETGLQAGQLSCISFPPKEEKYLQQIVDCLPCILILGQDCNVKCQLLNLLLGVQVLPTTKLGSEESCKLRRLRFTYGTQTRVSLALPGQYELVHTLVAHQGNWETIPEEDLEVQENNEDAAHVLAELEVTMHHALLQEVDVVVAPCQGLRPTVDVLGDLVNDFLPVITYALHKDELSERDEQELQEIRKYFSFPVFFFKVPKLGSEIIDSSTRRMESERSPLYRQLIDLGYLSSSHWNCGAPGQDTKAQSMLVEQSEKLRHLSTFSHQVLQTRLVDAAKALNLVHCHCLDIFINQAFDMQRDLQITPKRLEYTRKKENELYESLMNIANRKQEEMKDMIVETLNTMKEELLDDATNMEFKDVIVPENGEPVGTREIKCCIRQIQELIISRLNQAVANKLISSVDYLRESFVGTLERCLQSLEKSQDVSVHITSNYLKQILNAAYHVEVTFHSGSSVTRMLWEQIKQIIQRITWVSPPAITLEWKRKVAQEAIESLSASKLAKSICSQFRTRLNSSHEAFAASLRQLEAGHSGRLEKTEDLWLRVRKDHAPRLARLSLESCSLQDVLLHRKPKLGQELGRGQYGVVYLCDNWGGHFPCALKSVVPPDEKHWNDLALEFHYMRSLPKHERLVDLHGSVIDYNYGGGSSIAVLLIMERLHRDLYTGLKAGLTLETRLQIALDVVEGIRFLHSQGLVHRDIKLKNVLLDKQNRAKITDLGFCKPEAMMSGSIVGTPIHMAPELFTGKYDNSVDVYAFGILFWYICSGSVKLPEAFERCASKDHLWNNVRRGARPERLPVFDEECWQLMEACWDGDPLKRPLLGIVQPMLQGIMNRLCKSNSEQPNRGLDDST

The target of assay [18] is T18, ROCK1 (Homo sapiens, UniProt Q13464).
T18 construct: purchased Eurofins DiscoverX KINOMEscan

Assay [19] has as its target T19, YES (Homo sapiens, UniProt P07947).
T19 construct: purchased Eurofins DiscoverX KINOMEscan

T2 sequence (P07333 20-972): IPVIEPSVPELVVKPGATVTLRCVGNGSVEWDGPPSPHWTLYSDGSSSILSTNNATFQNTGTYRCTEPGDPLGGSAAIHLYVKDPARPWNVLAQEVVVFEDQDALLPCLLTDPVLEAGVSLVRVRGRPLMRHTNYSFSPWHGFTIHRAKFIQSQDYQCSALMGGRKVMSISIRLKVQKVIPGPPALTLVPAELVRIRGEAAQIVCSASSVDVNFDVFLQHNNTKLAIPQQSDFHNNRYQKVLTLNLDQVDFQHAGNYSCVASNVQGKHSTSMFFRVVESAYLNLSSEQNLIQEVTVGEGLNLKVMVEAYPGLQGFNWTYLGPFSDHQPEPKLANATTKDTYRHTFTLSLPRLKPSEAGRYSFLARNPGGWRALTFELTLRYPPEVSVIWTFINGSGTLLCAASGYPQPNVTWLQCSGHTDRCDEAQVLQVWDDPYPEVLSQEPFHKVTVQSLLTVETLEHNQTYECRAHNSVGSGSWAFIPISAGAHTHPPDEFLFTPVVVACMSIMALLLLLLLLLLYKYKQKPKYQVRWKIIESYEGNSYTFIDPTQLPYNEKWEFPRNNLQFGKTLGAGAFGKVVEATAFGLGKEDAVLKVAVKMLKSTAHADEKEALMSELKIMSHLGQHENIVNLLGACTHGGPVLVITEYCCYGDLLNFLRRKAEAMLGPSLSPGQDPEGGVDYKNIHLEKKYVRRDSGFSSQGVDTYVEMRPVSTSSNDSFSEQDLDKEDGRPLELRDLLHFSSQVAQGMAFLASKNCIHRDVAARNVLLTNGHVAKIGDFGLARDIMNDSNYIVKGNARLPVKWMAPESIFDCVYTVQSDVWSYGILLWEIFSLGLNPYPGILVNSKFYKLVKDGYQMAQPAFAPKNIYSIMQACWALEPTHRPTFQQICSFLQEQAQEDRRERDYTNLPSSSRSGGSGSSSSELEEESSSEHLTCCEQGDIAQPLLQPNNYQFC
T19 sequence (P07947 whole entry): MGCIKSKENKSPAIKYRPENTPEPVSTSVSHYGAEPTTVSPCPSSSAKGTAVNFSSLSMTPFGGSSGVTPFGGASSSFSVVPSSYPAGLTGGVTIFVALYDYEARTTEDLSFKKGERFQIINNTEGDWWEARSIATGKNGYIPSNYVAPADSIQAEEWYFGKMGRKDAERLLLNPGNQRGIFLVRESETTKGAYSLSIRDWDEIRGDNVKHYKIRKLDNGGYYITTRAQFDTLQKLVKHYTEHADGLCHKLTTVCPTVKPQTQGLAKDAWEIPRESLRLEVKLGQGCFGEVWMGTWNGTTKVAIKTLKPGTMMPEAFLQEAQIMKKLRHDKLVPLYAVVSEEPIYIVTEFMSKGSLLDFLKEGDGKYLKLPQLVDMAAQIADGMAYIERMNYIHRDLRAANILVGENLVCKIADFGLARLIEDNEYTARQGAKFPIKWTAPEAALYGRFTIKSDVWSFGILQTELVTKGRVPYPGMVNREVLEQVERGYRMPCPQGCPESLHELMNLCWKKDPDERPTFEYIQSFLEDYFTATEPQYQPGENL

`Clc1cc(NCC2CC2)c2ncc(-c3ccc4[nH]ncc4c3)n2n1` [compound 2, 6-Chloro-N-(cyclopropylmethyl)-3-(1H-indazol-5-yl)imidazo[1,2-b]pyridazin-8-amine]: the remaining binding at 1 µM in assay [1] was 100%; in [2] it was 79%; in [3], 71%; in [4] it was 94%; in [5] it was 95%; in assay [6] it was 94%. For the same molecule, the remaining binding at 1 µM in assay [7] was 100%; in assay [8] it was 100%; in assay [9] it was 90%; in assay [10], 100%; in assay [11], 87%; in [12], 100%. Besides, the remaining binding at 1 µM in assay [13] turned out to be 85%; in [14], 90%; in assay [15], 84%; in [16], 100%; in assay [17], 98%; in assay [18] it was 36%. Also, the remaining binding at 1 µM in assay [19] turned out to be 91%.
Take `O=C(CN1CCOCC1)N[C@H]1CC[C@H](Nc2cc(Cl)nn3c(-c4ccc5[nH]ncc5c4)cnc23)CC1` [compound 26]: the remaining binding at 1 µM in [1] was determined as 71%; in [2], 21%; in [3] it was 80%; in assay [4] it was 99%; in assay [5] it was 100%; in assay [6], 0.7%. In addition, the remaining binding at 1 µM in assay [7] was determined as 100%; in assay [8], 100%; in [9] it was 78%; in [10], 40%; in assay [11], 99%; in [12], 68%. In addition, the remaining binding at 1 µM in assay [13] was 91%; in assay [14], 89%; in assay [15] it was 86%; in assay [16], 100%; in assay [17], 91%; in assay [18] it was 22%. The remaining binding at 1 µM in assay [19] was determined as 93%.
For the molecule `CN1CCC(CNc2cc(Cl)nn3c(-c4cc5nc(Nc6ccccc6)[nH]c5cc4F)cnc23)CC1` [compound 31, 6-Chloro-3-(6-fluoro-2-(phenylamino)-1H-benzo[d]imidazol-5-yl)-N-((1-methylpiperidin-4-yl)methyl)imidazo[1,2-b]pyridazin-8-amine], the remaining binding at 1 µM was determined as 85% in [1]; 60% in assay [2]; 100% in assay [3]; 94% in assay [4]; 92% in [5]; 100% in assay [6]. Moreover, the remaining binding at 1 µM in assay [7] came to 95%; in [8], 91%; in assay [9], 92%; in assay [10], 91%; in assay [11], 96%; in assay [12], 95%. Besides, the remaining binding at 1 µM worked out at 84% in [13]; 90% in [14]; 99% in [15]; 96% in assay [16]; 79% in [17]; 76% in assay [18]. Moreover, the remaining binding at 1 µM in [19] came to 96%.
